Here are results for 1 substance from patent US20090062403A1, “Compositions and Methods for Treatment of Disorders of Protein Aggregation” (priority 2004, published 2009).

For series [1], the system named is Aβ oligomers. The note with it: rat, in vivo.
For series [2], the system named is Aβ oligomers. It is filed as in vivo. The note with it: rat. The text has this: The Aβ oligomers are naturally produced by cells transfected with genes that over-produce the amyloid precursor protein (APP). APP is cleaved by secretase(s) and the cells construct the oligomeric Aβ into molecules ranging from 2 to 12 amyloid proteins (2 mer to 12 mer) and secrete it into the culture medium (CM) of cultured cells. In addition, oligomeric Aβ is extracted from brain homogenate taken from transgenic mice (Tg2576) transfected with the Swedish APP mutation. […] These purified oligomeric forms of Aβ, at physiological concentrations relevant to those found in AD, are injected into the rat's lateral ventricle through an indwelling cannula while the animals are awake and moving. Two hours after injection the rats are tested under sensitive cognitive assay.
The assay, the Alternating Lever Cyclic Ratio (ALCR) test, has proven to be much more sensitive than previously published methods for measuring drug effects on cognitive function. In this task, rats must learn a complex sequence of lever-pressing requirements in order to earn food reinforcement in a two-lever experimental chamber. Subjects must alternate between two levers by switching to the other lever after pressing the first lever enough to get food reward. The exact number of presses required for each food reward changes, first increasing from 2 responses per food pellet up to 56 presses per food pellet, then decreasing back to 2 responses per pellet. Intermediate values are based on the quadratic function, x^2−x. One cycle is an entire ascending and descending sequence of these lever press requirements (e.g., 2, 6, 12, 20, 30, 42, 56, 56, 42, 30, 20, 12, 6, and 2 presses per food reward). Six such full cycles are presented during each daily session.
Oligomeric Aβ: Prepared from transfected Chinese Hamster Ovary Cells (7PA2 cells). These cells secrete oligomeric Aβ into the culture medium (CM) at physiological levels. Aβ oligomers was also derived from Tg2576 mouse brain and purified by size exclusion chromatography. Samples of oligomeric Aβ were characterized by Western Blot Analysis. Appropriate control compounds were produced and tested for each active Aβ oligomeric configuration. Rats: Forty (40) rats were trained under ALCR for approximately 3 months until their error rates are stable. Training sessions were conducted 5 days each week. Surgery: After training, all rats received a single 28 ga. cannula that was permanently affixed to the skull, and aimed at the lateral ventricle (divided equally between left and right). Rats were allowed 5 days to recover from surgery. Administration: In vivo administration of AZD103 to rats was performed by dissolving AZD103 into drinking water. Different concentrations were prepared, and the average daily water intake used to target specific average daily dose levels. These dose levels were therefore approximate. Testing: AZD 103 was tested against Aβ oligomers known to disrupt cognitive function. Two general procedures were incorporated. • 1. AZD 103 was incubated with the injectate medium containing Aβ oligomers prior to assessing it's affect on ALCR. Appropriate control injections were included un-incubated (untreated) Aβ oligomers as well as AZD 103 were injected ICV. • 2. Rats were treated with AZD 103, administered in drinking water, for at least 3-4 days prior to testing ICV injection of Aβ oligomers preparations known to affect cognitive function under ALCR.
Treatments were assessed in the following order: • 1. ICV 7PA2 CM alone • 2. ICV AZD 103 alone • 3. ICV ex vivo incubated 7PA2 CM with AZD 103 • All rats received treatments 1-3 in randomized order. • 4. ICV 7PA2 CM after 4 days treatment with PO AZD103 30 mg/kg/day. • 5. ICV 7PA2 CM after 4 days treatment with PO AZD103 100 mg/kg/day. • 6. ICV 7PA2 CM after 4 days treatment with PO AZD103 300 mg/kg/day. • 7. ICV 7PA2 CM after 4 days with no treatment. […]

[3] abbreviates: ICV AZD103 alone, % of baseline errors.
[4] abbreviates: ICV Aβ oligomers incubated ex vivo with AZD103, % of baseline errors.
The mark [5] stands for this setting: ICV oligomers after 4 days p.o. 30 mg/kg/day in drinking water.
The mark [6] stands for this setting: ICV oligomers after 4 days p.o. 100 mg/kg/day in drinking water.
[7] abbreviates: ICV oligomers after 4 days p.o. 300 mg/kg/day in drinking water.

Read-outs that look alike come from different tables or passages of the source.

Chain of Aβ oligomers (P05067 672-711 limits assumed): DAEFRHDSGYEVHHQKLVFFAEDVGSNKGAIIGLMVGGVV

In the case of “1,3,5/2,4,6-(scyllo-) cyclohexanehexol [Scyllo-cyclohexanehexol]”, the “brain penetrance following oral dosing” value in the series with Aβ oligomers [1] is “sufficiently brain penetrant”. In addition, the “performance in ALCR when administered without oligomers” value in the series with Aβ oligomers [2] (ICV AZD103 alone) is recorded as “no impact on performance”. In addition, the Perseveration % errors in the series with Aβ oligomers [2] (setting [3]) is listed as 99%; with Aβ oligomers [2] (setting [4]) it was 100%; in the series on Aβ oligomers [2] (setting [5]), 120%; with Aβ oligomers [2] (setting [6]), 120%; with Aβ oligomers [2] (setting [7]) it was 99%. Further, the Switching % errors was 99% in the series with Aβ oligomers [2] (setting [3]); 95% with Aβ oligomers [2] (setting [4]); 109% with Aβ oligomers [2] (setting [5]); 100% with Aβ oligomers [2] (setting [6]); 109% with Aβ oligomers [2] (setting [7]).
